Structures are written as SMILES.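 Values below derive from 48-hour exposures of cells grown in 96-well plates, with endpoints linearly interpolated between the two concentrations bracketing the appropriate inhibition level. GI50: concentration for 50% inhibition of growth.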 The source made the active and inactive calls. Rule as the data show it: active = GI50 up to about 1.1 µM and inactive = higher.

Test systems include OVCAR-3; NCI/ADR-RES; SF-268; PC-3; NCI-H23; SNB-19; A549; NCI-H226; SW-620; M14; SK-MEL-2; SK-MEL-5; TK-10; CCRF-CEM; SK-MEL-28; MOLT-4; HCT-15; HL-60.
Common to all, as to assay: DTP human tumour cell line panel, 48 h

For `Cc1ccc(NC(=O)COc2ccc(Cl)cc2)cc1Cl`, the GI50 (as a rule, the concentration at which growth is held to half of that of the control) with OVCAR-3 was > 100 µM (inactive); in the test with NCI/ADR-RES, 78.2 µM (inactive); in the test on SF-268, 53.1 µM (inactive); with PC-3 it was > 100 µM (inactive); in the test on NCI-H23, 19.7 µM (inactive); with SNB-19 it was 74.1 µM (inactive). Further, the GI50 is 74.1 µM (inactive) with A549; 31 µM (inactive) in the test with NCI-H226; > 100 µM (inactive) with SW-620; 47.1 µM (inactive) with M14; > 100 µM (inactive) in the test on SK-MEL-2; > 100 µM (inactive) with SK-MEL-5. In addition, the GI50 in the test with TK-10 was 27.3 µM (inactive); with CCRF-CEM it was 0.278 µM (active); in the test on SK-MEL-28, > 100 µM (inactive); in the test on MOLT-4, > 100 µM (inactive); in the test with HCT-15, more than 100 µM.

For the compound `O=C(COc1ccc(Cl)c(Cl)c1)N(Cc1ccccc1)Cc1ccc[n+](Cc2ccc(Cl)cc2S(=O)(=O)F)c1`, the GI50 was 65.5 µM (inactive) with OVCAR-3; > 100 µM (inactive) in the test with NCI/ADR-RES; > 100 µM (inactive) with SF-268; > 100 µM (inactive) in the test with PC-3; 41.3 µM (inactive) in the test on NCI-H23; 37.8 µM (inactive) in the test with SNB-19. The GI50 in the test on A549 was > 100 µM (inactive); in the test with NCI-H226 it was > 100 µM (inactive); in the test on SW-620, 54.2 µM (inactive); in the test with M14, 38.5 µM (inactive); in the test on SK-MEL-2, 25.4 µM (inactive); in the test with SK-MEL-5, 22.6 µM (inactive). For the same compound, the GI50 in the test with TK-10 was 53.3 µM (inactive); in the test with SK-MEL-28 it was 26.8 µM (inactive); in the test on MOLT-4, 21.4 µM (inactive); in the test with HL-60, 30.9 µM (inactive); with HCT-15, 31.5 µM.

With `CC(C)(C)c1cc(-c2cc(C(C)(C)C)n(-c3ccccc3)n2)nn1-c1ccccc1`, the GI50 in the test with OVCAR-3 is > 100 µM (inactive); in the test on NCI/ADR-RES it was > 100 µM (inactive); with SF-268, > 100 µM (inactive); with PC-3, 65.6 µM (inactive); in the test with NCI-H23 it was > 100 µM (inactive); with A549 it was > 100 µM (inactive). The GI50 was > 100 µM (inactive) with NCI-H226; 8.57 µM (inactive) in the test on SW-620; > 100 µM (inactive) in the test with M14; > 100 µM (inactive) with SK-MEL-2; > 100 µM (inactive) in the test with SK-MEL-5; > 100 µM (inactive) with TK-10. The GI50 with CCRF-CEM is > 100 µM (inactive); in the test with SK-MEL-28 it was > 100 µM (inactive); in the test with MOLT-4 it was > 100 µM (inactive); in the test on HL-60 it was > 100 µM (inactive); in the test on HCT-15 it was more than 100 µM.

Regarding `Nn1c(S)nnc1-c1ccccc1Nc1ccccc1-c1nnc(S)n1N`, the GI50 in the test with OVCAR-3, with NCI/ADR-RES, in the test on SF-268, in the test on PC-3, with NCI-H23 and with SNB-19 was > 50 µM (inactive) throughout. Besides, the GI50 with NCI-H226, in the test with SW-620, in the test on M14, with SK-MEL-2, in the test with SK-MEL-5 and in the test with TK-10 was > 50 µM (inactive) throughout. For the same compound, the GI50 in the test on CCRF-CEM is > 50 µM (inactive); in the test with SK-MEL-28 it was > 50 µM (inactive); with MOLT-4, > 50 µM (inactive); in the test with HL-60 it was > 50 µM (inactive); in the test with HCT-15, more than 50 µM.

As for `Cn1cc(NC(=O)c2cc(NC(=O)CCCCCCCCCCC(=O)Nc3cc(C(=O)Nc4cc(C(=O)NCCC(=N)N)n(C)c4)n(C)c3)cn2C)cc1C(=O)NCCC(=N)N`, the GI50 with OVCAR-3 is 52.7 µM (inactive); in the test on SF-268, 30.6 µM (inactive); in the test with NCI-H23, 32 µM (inactive); in the test with SNB-19 it was 34.4 µM (inactive); in the test with A549, 22.2 µM (inactive); with NCI-H226, > 100 µM (inactive). Further, the GI50 in the test with SW-620 is 17.9 µM (inactive); in the test with M14, 28.2 µM (inactive); with SK-MEL-2, 35.8 µM (inactive); in the test on SK-MEL-5 it was 15.8 µM (inactive); with TK-10, 29.4 µM (inactive); in the test with CCRF-CEM, 50 µM (inactive). For the same compound, the GI50 in the test with SK-MEL-28 is > 10 µM (inactive); with MOLT-4, 45.9 µM (inactive); in the test with HCT-15 it was 36.6 µM.

Regarding `C=C1C(=O)OC2CC(C)C3(O)CCC(=O)C3(C)CC12` (stereo unspecified), the GI50 was 16 µM (inactive) in the test with OVCAR-3; 32.4 µM (inactive) in the test with NCI/ADR-RES; 18.5 µM (inactive) in the test with SF-268; 49 µM (inactive) in the test with PC-3; 31.7 µM (inactive) in the test on NCI-H23; 18.7 µM (inactive) with SNB-19. Moreover, the GI50 is 52.4 µM (inactive) in the test with A549; 64 µM (inactive) in the test with NCI-H226; 42.1 µM (inactive) with SW-620; 22 µM (inactive) in the test on M14; 22.2 µM (inactive) in the test on SK-MEL-2; 36.6 µM (inactive) with SK-MEL-5. Also, the GI50 in the test on TK-10 was 26.7 µM (inactive); in the test on CCRF-CEM, 33.8 µM (inactive); in the test on SK-MEL-28, 54.8 µM (inactive); with MOLT-4, 22.2 µM (inactive); in the test on HL-60 it was 18 µM (inactive); with HCT-15, 14.9 µM.

For `CC(C)(OCc1ccccc1)c1ccccc1P(c1ccccc1)c1ccccc1`, the GI50 with OVCAR-3 was 46.9 µM (inactive); in the test on NCI/ADR-RES, 50.7 µM (inactive); in the test with SF-268 it was 83.8 µM (inactive); in the test with PC-3 it was 33.3 µM (inactive); in the test on NCI-H23, 21.7 µM (inactive); with SNB-19, 69 µM (inactive). Moreover, the GI50 in the test on A549 is 38.7 µM (inactive); in the test on NCI-H226, 69.2 µM (inactive); in the test on SW-620, 82.2 µM (inactive); in the test on M14, 43.6 µM (inactive); in the test on SK-MEL-2, 73.5 µM (inactive); in the test on SK-MEL-5 it was 35 µM (inactive). Moreover, the GI50 was 37.1 µM (inactive) in the test on TK-10; 42.2 µM (inactive) with SK-MEL-28; 17.2 µM (inactive) in the test on MOLT-4; 13.5 µM (inactive) with HL-60; 36.4 µM in the test on HCT-15.

Take `CC1=CCC(C)=Nc2nc3ccccc3n21`: the GI50 in the test on OVCAR-3, in the test with NCI/ADR-RES, in the test with SF-268, in the test with PC-3, in the test on NCI-H23 and in the test on SNB-19 was > 100 µM (inactive) in each case. For the same compound, the GI50 in the test with A549, with NCI-H226, in the test with SW-620, in the test with M14, in the test on SK-MEL-2 and in the test on SK-MEL-5 was > 100 µM (inactive) in each case. Also, the GI50 in the test with TK-10 was > 100 µM (inactive); with CCRF-CEM, > 100 µM (inactive); with SK-MEL-28 it was > 100 µM (inactive); with MOLT-4, > 100 µM (inactive); with HL-60, > 100 µM (inactive); with HCT-15, more than 100 µM.

The record behind these values is ChEMBL document CHEMBL1201862, “PubChem BioAssay data set” (2004).
